{"source": "patent US10398689B2", "about": "“Benzopiperidine derivative, preparation method thereof and medical use thereof” (Jiangsu Hengrui Medicine Co., Ltd., priority 2015, dated 2019)", "key": {"ER (estrogen receptor)": {"target": "T1, ER (estrogen receptor) (Homo sapiens, UniProt P03372)", "T1 construct": "MCF-7/ERE-luciferase monoclonal cells were selected by transfection of MCF-7; host or cells: MCF-7/ERE-luciferase (only the ERE-luciferase reporter was transfected)", "T1 sequence (P03372 1-595)": "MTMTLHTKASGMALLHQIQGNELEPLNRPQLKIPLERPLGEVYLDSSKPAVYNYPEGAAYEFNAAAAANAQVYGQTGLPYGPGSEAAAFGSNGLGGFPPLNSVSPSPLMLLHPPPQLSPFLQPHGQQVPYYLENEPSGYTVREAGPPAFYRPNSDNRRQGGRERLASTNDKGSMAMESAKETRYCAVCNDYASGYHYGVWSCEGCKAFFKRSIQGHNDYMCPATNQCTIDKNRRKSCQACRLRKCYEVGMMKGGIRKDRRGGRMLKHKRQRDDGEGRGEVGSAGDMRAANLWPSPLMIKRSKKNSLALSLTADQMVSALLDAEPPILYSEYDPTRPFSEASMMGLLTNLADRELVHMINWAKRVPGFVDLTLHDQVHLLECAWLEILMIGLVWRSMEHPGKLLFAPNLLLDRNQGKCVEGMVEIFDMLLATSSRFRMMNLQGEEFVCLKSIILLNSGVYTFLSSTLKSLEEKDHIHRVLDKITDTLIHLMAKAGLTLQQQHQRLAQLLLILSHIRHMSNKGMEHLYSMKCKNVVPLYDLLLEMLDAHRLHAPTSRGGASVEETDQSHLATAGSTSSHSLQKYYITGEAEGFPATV", "assay": "Inhibition of the binding of estrogen (E) to estrogen receptor (ER), MCF-7/ERE-luciferase reporter cells", "type": "cell-based", "conditions": "MCF-7/ERE-luciferase cells, 0.1 nM estradiol, 24 hours, chemiluminescence; read-out: IC50 value of inhibition effect on the binding of E to ER", "procedure": "The compounds of the present invention have an inhibition effect on the binding of E (estrogen) to ER (estrogen receptor), thereby blocking the binding of a complex of E and ER complex to ERE (estrogen responsive element), and subsequently blocking the expression of downstream luciferase protein.\nThe inhibition effect of the compounds on the binding of E to ER in vitro was tested by the following method.\nThe object of this experiment was to determine the inhibition effect of the compounds on the binding of E to ER, and the in vitro activity of the compounds was evaluated according to the IC50 values.\nERE was cloned into the upstream of the luciferase gene, and MCF-7/ERE-luciferase monoclonal cells were selected by transfection of MCF-7 (Cell Bank of Chinese Academy of Sciences typical culture preservation Committee, TCHu74). MCF-7/ERE-luciferase cells were inoculated into the MEM medium (hyclone, SH30024.01B) containing 10% charcoal stripped FBS (Moregate, FBSF), 1% sodium pyruvate (Sigma, S8636), 1% nonessential amino acids (Sigma, M7145) and 500 μg/ml G418 in a 96-well plates with a density of 30,000 cells/well, and the cells were incubated under the conditions of 37° C., and 5% CO2. The drug was prepared as a 20 mM stock solution that was later diluted with 100% DMSO in 10 fold concentration gradient, and then diluted 20-fold with the medium DMEM. After incubation for 24 hours, the medium was removed, then 0.1 nM estradiol (Sigma, E2758) and 10 μl of the drug diluted with the medium were added to each well, and the control group was added with DMSO. The plate was gently shaken and incubated in a incubator at 37° C., 5% CO2. After 24 hours, the cell culture medium was discarded, Then, 50 μl of the prepared luciferase substrate (Promega, E6110) was added to each well, and the plate was placed in the dark at room temperature for 10-15 minutes, then the chemiluminescence signal value was determined.\nThe inhibition effect of the compounds of the present invention on the binding of E to ER was tested by the experiment described above. The values of the chemiluminescence signal vs the logarithmic concentrations of the compounds were plotted using Graphpad Prism, and the measured IC50 values are shown in Table 1."}, "MCF7 cells": {"tested_on": "MCF7 cells", "assay": "Inhibition of the proliferation of MCF7 cells (Cell Titer-Glo)", "type": "cell-based", "conditions": "Homo sapiens, MCF-7 cells, 72 hours, read-out: IC50 value of inhibition effect on the proliferation of MCF7 cells", "procedure": "The object of this experiment was to determine the inhibition effect of the compounds on the proliferation activity of MCF7 cells, and the in vitro activity of the compounds was evaluated according to the IC50 values.\nMCF-7 cells (Cell Bank of Chinese Academy of Sciences typical culture preservation Committee, TChu 74) were inoculated into the MEM medium (Hyclone, SH30024.01B) containing 10% FBS (Gibco, 10099-141), 1% sodium pyruvate (Sigma, S8636), and 1% nonessential amino acids (Sigma, M7145) in a 96-well plate with a density of 40,000 cells/well, and the cells were incubated under the conditions of 37° C., and 5% CO2. The compound was prepared as a 20 mM stock solution that was later diluted to 1000× final concentration with 100% DMSO, and then diluted with 20-fold medium containing 2% FBS. After incubation for 24 hours, the medium was removed and 90 μl of the medium containing 2% FBS and 10 μl of the drug were added to each well, 10 […] of DMSO was added to the control group, and the blank group contained only 100 μl medium containing 2% FBS. The plate was gently shaken and incubated in a incubator at 37° C., 5% CO2. After 72 hours later, 50 μl of mixed Cell Titer-Glo (Promega, G7571) was added to each well. The plate was shaken until the ingredients were mixed uniformly, and placed at room temperature for 10 minutes, then the chemiluminescence signal value was determined. The inhibition effect of the compound AZD9496 at 100 nM on the proliferation of MCF-7 cells was set to 100%, the maximum inhibition rate of other compounds=(chemiluminescence signal valuenegative control−chemiluminescence signal valuecompound 100 nm)/(chemiluminescence signal valuenegative control−chemiluminescence signal valueAZD9496 100 nm)×100%, and the negative control was a well with 0.5% DMSO.\nThe values of the chemiluminescence signals vs the logarithmic concentrations of the compounds were plotted using Graghpad Prism to obtain the IC50 values."}, "[1]": {"assay": "Pharmacokinetics assay in BALB/C nude mice after intragastrical administration", "type": "in vivo", "conditions": "female, mouse, po, 3 mg/kg, plasma; for Vd/F: read-out: Apparent Distribution Volume Vz/F; for AUC: read-out: Area Under Curve AUC; for CL/F: read-out: Clearance CL/F; for half-life: read-out: Half-Life t1/2 (converted); for MRT: read-out: Mean Residence Time MRT; for Cmax: read-out: Plasma Conc. Cmax", "procedure": "BALB/C nude mice were used as test animals. The drug concentration in plasma at different time points was determined by LC/MS/MS after intragastrical administration of the compounds of Examples 1, 7, 8, 10, 11, 14, 16, 39 and 42 to BALB/C nude mice. The pharmacokinetic behavior of the compounds of the compounds of the present invention was studied and evaluated in BALB/C nude mice.\nEighty-one (81) female BALB/C nude mice, were equally divided into 9 groups, which were purchased from SINO-BRITSH SIPPR/BK LAB. ANIMAL LTD., CO, with Certificate No.: SOCK (Shanghai) 2008-0016.\nThe appropriate amount of each test compound was weighed, and successively added with 9% PEG400+0.5% tween 80+0.5% PVP+90% aqueous solution of 0.5% CMC.\nAfter an overnight fasting, 81 female BALB/C nude mice were equally divided into 9 groups; and administered the test compounds intragastrically at an administration volume of 0.2 mL/10 g.\n81 female Balb/C nude mice were administered the test compounds intragastrically after an overnight fasting. Blood (0.1 mL) was taken (3 animals at each time point) at 0.5, 1.0, 2.0, 4.0, 6.0, 8.0, 11.0, and 24.0 h after administration. The samples were stored in heparinized test tubes, and centrifuged for 10 minutes at 3,500 rpm to separate the blood plasma. The plasma samples were stored at −20° C.\nThe concentration of the prototype drug in the plasma and in the solution to be administered was determined by liquid chromatography tandem mass spectrometry (LC/MS MS)."}}}
{"molecule": "CC1Cc2cc(-c3cnn(C)c3)ccc2C(c2ccc(/C=C/C(=O)O)cc2)N1c1ccc(C2CC2)cc1", "note": "[Example 10, (E)-3-(4-((1R,3R/1S,3S)-2-(4-Cyclopropylphenyl)-3-methyl-6-(1-methyl-1H-pyrazol-4-yl)-1,2,3,4-tetrahydroisoquinolin-1-yl)phenyl)acrylic acid]", "values": [{"measurement": "IC50", "setting": "ER (estrogen receptor)", "value": 1.07, "unit": "nM"}, {"measurement": "IC50", "setting": "MCF7 cells", "value": 0.3, "unit": "nM"}, {"measurement": "Vd/F", "setting": "[1]", "value": 3.18, "unit": "L/kg"}, {"measurement": "AUC", "setting": "[1]", "value": 6280, "unit": "ng·h/mL"}, {"measurement": "CL/F", "setting": "[1]", "value": 7.96, "unit": "mL/min/kg"}, {"measurement": "half-life", "setting": "[1]", "value": 4.61, "unit": "h"}, {"measurement": "MRT", "setting": "[1]", "value": 7.08, "unit": "h"}, {"measurement": "Cmax", "setting": "[1]", "value": 1070, "unit": "ng/mL"}]}
{"molecule": "CC(C)c1ccc(N2C(C)Cc3cc(-c4cnn(C)c4)ccc3C2c2ccc(/C=C/C(=O)O)cc2)cc1", "note": "[Example 16, (E)-3-(4-((1R,3R/1S,3S)-2-(4-Isopropylphenyl)-3-methyl-6-(1-methyl-1H-pyrazol-4-yl)-1,2,3,4-tetrahydroisoquinolin-1-yl)phenyl)acrylic acid]", "values": [{"measurement": "IC50", "setting": "ER (estrogen receptor)", "value": 2.15, "unit": "nM"}, {"measurement": "IC50", "setting": "MCF7 cells", "value": 0.93, "unit": "nM"}, {"measurement": "Vd/F", "setting": "[1]", "value": 1.43, "unit": "L/kg"}, {"measurement": "AUC", "setting": "[1]", "value": 9120, "unit": "ng·h/mL"}, {"measurement": "CL/F", "setting": "[1]", "value": 5.48, "unit": "mL/min/kg"}, {"measurement": "half-life", "setting": "[1]", "value": 3.01, "unit": "h"}, {"measurement": "MRT", "setting": "[1]", "value": 4.87, "unit": "h"}, {"measurement": "Cmax", "setting": "[1]", "value": 1560, "unit": "ng/mL"}]}
{"molecule": "CC1Cc2cc(-c3cn[nH]c3)ccc2C(c2ccc(/C=C/C(=O)O)cc2)N1c1ccc(C2CC2)cc1", "note": "[Example 36, (E)-3-(4-((1R,3R/1S,3S)-2-(4-cyclopropylphenyl)-3-methyl-6-(1H-pyrazol-4-yl)-1,2,3,4-tetrahydroisoquinolin-1-yl)phenyl)acrylic acid]", "values": [{"measurement": "IC50", "setting": "ER (estrogen receptor)", "value": 5.63, "unit": "nM"}, {"measurement": "IC50", "setting": "MCF7 cells", "value": 2.8, "unit": "nM"}]}
{"molecule": "Cc1ccc(N2C(C)Cc3cc(-c4cnn(C)c4)ccc3C2c2ccc(/C=C/C(=O)O)cc2)c(C)c1", "note": "[Example 37, (E)-3-(4-((1R,3R/1S,3S)-2-(2,4-Dimethylphenyl)-3-methyl-6-(1-methyl-1H-pyrazol-4-yl)-1,2,3,4-tetrahydroisoquinolin-1-yl)phenyl)acrylic acid]", "values": [{"measurement": "IC50", "setting": "ER (estrogen receptor)", "value": 0.84, "unit": "nM"}, {"measurement": "IC50", "setting": "MCF7 cells", "value": 1.74, "unit": "nM"}]}
{"molecule": "CCn1cc(-c2ccc3c(c2)C[C@@H](C)N(c2ccc(C(C)C)cc2)[C@@H]3c2c(F)cc(/C=C/C(=O)O)cc2F)cn1", "note": "[Example 38, (E)-3-(4-((1S,3R)-6-(1-Ethyl-1H-pyrazol-4-yl)-2-(4-isopropylphenyl)-3-methyl-1,2,3,4-tetrahydroisoquinolin-1-yl)-3,5-difluorophenyl)acrylic acid]", "values": [{"measurement": "IC50", "setting": "ER (estrogen receptor)", "value": 0.18, "unit": "nM"}, {"measurement": "IC50", "setting": "MCF7 cells", "value": 0.38, "unit": "nM"}]}
{"molecule": "CC(C)c1ccc(N2[C@H](c3c(F)cc(/C=C/C(=O)O)cc3F)c3ccc(-c4cnn(C)c4)cc3C[C@H]2C)cc1", "note": "[Example 39, (E)-3-(3,5-Difluoro-4-((1S,3R)-2-(4-isopropylphenyl)-3-methyl-6-(1-methyl-1H-pyrazol-4-yl)-1,2,3,4-tetrahydroisoquinolin-1-yl)phenyl)acrylic acid]", "values": [{"measurement": "IC50", "setting": "ER (estrogen receptor)", "value": 0.17, "unit": "nM"}, {"measurement": "IC50", "setting": "MCF7 cells", "value": 0.42, "unit": "nM"}, {"measurement": "Vd/F", "setting": "[1]", "value": 1.53, "unit": "L/kg"}, {"measurement": "AUC", "setting": "[1]", "value": 10200, "unit": "ng·h/mL"}, {"measurement": "CL/F", "setting": "[1]", "value": 4.92, "unit": "mL/min/kg"}, {"measurement": "half-life", "setting": "[1]", "value": 3.6, "unit": "h"}, {"measurement": "MRT", "setting": "[1]", "value": 7.02, "unit": "h"}, {"measurement": "Cmax", "setting": "[1]", "value": 1760, "unit": "ng/mL"}]}
{"molecule": "CC1Cc2cc(-c3cnn(C)c3)ccc2C(c2ccc(/C=C/C(=O)O)cc2)N1c1ccc(CC2CC2)cc1", "note": "[Example 47, (E)-3-(4-((1R,3R/1S,3S)-2-(4-(Cyclopropylmethyl)phenyl)-3-methyl-6-(1-methyl-1H-pyrazol-4-yl)-1,2,3,4-tetrahydroisoquinolin-1-yl)phenyl)acrylic acid]", "values": [{"measurement": "IC50", "setting": "ER (estrogen receptor)", "value": 5.39, "unit": "nM"}, {"measurement": "IC50", "setting": "MCF7 cells", "value": 4.9, "unit": "nM"}]}
{"molecule": "CC(C)c1ccc(N2C(C)Cc3cc(-c4cn[nH]c4)ccc3C2c2ccc(/C=C/C(=O)O)cc2)cc1", "note": "[Example 48, (E)-3-(4-((1R,3R/1S,3S)-2-(4-Isopropylphenyl)-3-methyl-6-(1H-pyrazol-4-yl)-1,2,3,4-tetrahydroisoquinolin-1-yl)phenyl)acrylic acid]", "values": [{"measurement": "IC50", "setting": "ER (estrogen receptor)", "value": 0.71, "unit": "nM"}, {"measurement": "IC50", "setting": "MCF7 cells", "value": 0.59, "unit": "nM"}]}
{"molecule": "CC(C)c1ccc(N2C(C)Cc3cc(-c4cnn(C(F)F)c4)ccc3C2c2ccc(/C=C/C(=O)O)cc2)cc1", "note": "(stereo not drawn) [Example 49]", "values": [{"measurement": "IC50", "setting": "ER (estrogen receptor)", "value": 3.46, "unit": "nM"}, {"measurement": "IC50", "setting": "MCF7 cells", "value": 1.04, "unit": "nM"}]}
